By IC50 is commonly meant the concentration that gives 50% inhibition.

In this assay the target is human cGAS (residues 161-522) (Homo sapiens (Human), UniProt Q8N884). Kind of assay: Malachite Green assay to measure cGAS activity (coupled enzymatic assay, phosphate detection). The format is biochemical. The note with it: recombinant human cGAS (residues 161-522) 25 nM, 80 μM GTP, 100 nM ISD, 4 hour at RT, absorbance 620 nm. As to the method:
Malachite Green Assay to Measure cGAS Activity Compounds were tested for cGAS inhibition in a coupled enzymatic assay based on Phosphate detection by Malachite Green. Final assay conditions were 20 mM TRIS pH 7.5 (Applichem), 5 mM MgCl2 (Sigma) and 0.01% BSA (Sigma) supplemented with […] (Sigma), 80 μM GTP (Sigma) and 100 nM Interferon Stimulating DNA (ISD) (Microsynth). Recombinantly expressed purified human cGAS (residues 161-522) was used at 25 nM. All compounds were prepared as 10 mM stock solutions in DMSO and a 16 pt dilution series in DMSO with a dilution factor of 2.5 was prepared. 1 μL of DMSO dilution series was transferred to 32.3 μL reaction buffer, mixed by pipetting up/down, spun for 1 minute at 3000 rpm and was visually inspected for precipitation. 5 μL of 3-fold enzyme stock solution were transferred to an empty 384-well Black/Clear Flat Bottom Polystyrene NBS (Corning) rows 3-24. Rows 1-2 were filled with assay buffer. Plates were spun 10 seconds at 1000 rpm (164×g). 5 μL of compound intermediate dilution was added and mixed by pipetting up/down to rows 3-24. Rows 1-2 were filled with 3.1% DMSO assay buffer. Plates were spun 10 seconds at 1000 rpm (164×g). 5 μL 3-fold Nucleotide/DNA mix was added to all wells to start the reaction. Plates were spun 10 seconds at 1000 rpm (164×g) and incubated for 4 hour at room temperature (RT) in the dark. 5 μL 4 U/mL PPase (Sigma) were added to all wells. Plates spun 10 seconds at 1000 rpm (164×g). 10 μL BioMol green Solution (Enzo Life Sciences) was added to all wells. Plates spun 10 seconds at 1000 rpm (164×g) and incubated 30 minutes at RT in the dark. Absorbance data was collected 620 nm on an EnVision Multilable Reader (Perkin Elmer) and the following measurement settings were used: excitation filter photometric was 620 nm; excitation from the top; measurement height was 1 mm; number of flashes was 30; number of flashes integrated was 1. All plates are checked for abnormalities and outliers in the Blank Control (no protein, row 1) and the Neutral Control (no compound, row 2) are excluded using the 3*SD rule. Data was normalized to 0 and 100% by Blank and Neutral Control and each curve was fitted and judged using the 4 parameter logistic equation to determine the IC50 for cGAS inhibition. Table 1 provides IC50 values (μM) for cGAS inhibition obtained for particular examples of the present invention as measured by the above-described assay.

Sequence of human cGAS (residues 161-522) (Q8N884 161-522): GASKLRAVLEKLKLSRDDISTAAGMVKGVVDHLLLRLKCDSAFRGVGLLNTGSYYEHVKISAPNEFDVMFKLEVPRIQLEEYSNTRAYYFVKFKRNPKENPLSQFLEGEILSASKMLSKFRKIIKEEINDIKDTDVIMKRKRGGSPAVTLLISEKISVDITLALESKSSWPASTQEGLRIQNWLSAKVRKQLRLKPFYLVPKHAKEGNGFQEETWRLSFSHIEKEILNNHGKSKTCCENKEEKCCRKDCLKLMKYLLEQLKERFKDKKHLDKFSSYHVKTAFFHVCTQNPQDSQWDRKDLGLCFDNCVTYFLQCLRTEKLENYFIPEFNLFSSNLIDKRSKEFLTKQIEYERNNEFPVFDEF

As to `Cc1ccc(-c2cc(C(=O)O)c3nc(C)[nH]c3c2)c(Cl)c1` [Example 32], the IC50 was 2410 nM.

Source of the values: patent publication US20230348398A1 (Hoffmann-La Roche Inc., priority 2020, published 2023).
